pEC50, pIC50, pKi: −log10 of the molar value. In brackets after ≈: the same amount, converted by molar mass.
Tests used:
[1] = target: T1, Human immunodeficiency virus type 1 protease (Human immunodeficiency virus 1, UniProt Q72874)
Description: Inhibition of HIV-1 protease

[2] = target: Human immunodeficiency virus type 1 protease (Human immunodeficiency virus 1) (UniProt Q72874)
Description: Compound was evaluated for the thymidine reversal of HIV-1 protease

L1210 = assay: cells; conditions: Mus musculus
Description: Compound was evaluated for the inhibitory activity of L1210 cells

Thymidylate synthase = Thymidylate synthase (Homo sapiens, UniProt P04818)
Description: Compound was evaluated for the inhibitory constant of human thymidylate synthase

[3] = target: T1, Human immunodeficiency virus type 1 protease; remark: listed apart in the source
Description: Effective concentration of compound for inhibition of HIV 1 protease was determined

[4] = Compound was evaluated for the solubility at the pH 7.4; format: ADME; conditions: buffer
[5] = target: T1, Human immunodeficiency virus type 1 protease; remark: listed apart in the source
Description: Compound was evaluated for the inhibitory activity against HIV-1 protease

Carbonic anhydrase 2 = Carbonic anhydrase 2 (Homo sapiens, UniProt P00918)
Description: Compound was evaluated for the inhibitory constant towards Human Carbonic anhydrase II (HCA II)

Thymidylate synthase, sequence (P04818 whole entry): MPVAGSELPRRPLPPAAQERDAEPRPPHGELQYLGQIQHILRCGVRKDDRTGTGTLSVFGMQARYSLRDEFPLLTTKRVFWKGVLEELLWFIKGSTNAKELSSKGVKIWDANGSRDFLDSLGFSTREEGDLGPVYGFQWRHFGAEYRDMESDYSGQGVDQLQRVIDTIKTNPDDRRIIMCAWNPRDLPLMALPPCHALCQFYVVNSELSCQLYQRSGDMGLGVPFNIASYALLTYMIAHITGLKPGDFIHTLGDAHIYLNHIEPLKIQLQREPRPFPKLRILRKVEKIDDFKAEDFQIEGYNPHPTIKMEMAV

CC(C)(C)OC(=O)N[C@@H](Cc1ccccc1)[C@H](O)[C@@H](O)[C@H](Cc1ccccc1)NC(=O)OC(C)(C)C
pIC50 [1]: 7.40

CN(Cc1ccc(S(=O)(=O)N2CCOCC2)cc1)c1ccc2c3c(cccc13)C(=N)N2
Thymidine reversal [2]: 8.5 | pIC50 (L1210): 6.52

CNC1=Nc2ccc(N(C)Cc3ccc(S(=O)(=O)N4CCOCC4)cc3)c3c(C)ccc1c23
Thymidine reversal [2]: 12.7 | pKi (Thymidylate synthase): 8.70 | pIC50 (L1210): 6.82

CC(C)[C@H](NC(=O)OCc1ccccn1)C(=O)N[C@@H](Cc1ccccc1)[C@H](O)[C@H](O)[C@H](Cc1ccccc1)NC(=O)[C@@H](NC(=O)OCc1ccccn1)C(C)C
pEC50 [3]: 7.70 | solubility [4]: 3.1 µM (≈ 2.38 µg/mL) | pKi [5]: 10.05

CCN(Cc1ccc(S(=O)(=O)N2CCNCC2)cc1)c1ccc2c3c(cccc13)C(=O)N2
Thymidine reversal [2]: 1.1

CC(C)(C)OC(=O)N[C@@H](Cc1ccccc1)[C@@H](O)[C@H](O)[C@H](Cc1ccccc1)NC(=O)OC(C)(C)C
pIC50 [1]: 6.55

CC(C)[C@H](NC(=O)OCc1ccccc1)C(=O)N[C@@H](Cc1ccccc1)C(O)C(O)[C@H](Cc1ccccc1)NC(=O)[C@@H](NC(=O)OCc1ccccc1)C(C)C (single isomer, unassigned; 11)
pIC50 [1]: 9.66

CC(C)[C@H](NC(=O)N(C)Cc1ccccn1)C(=O)N[C@@H](Cc1ccccc1)[C@H](O)[C@H](O)[C@H](Cc1ccccc1)NC(=O)[C@@H](NC(=O)N(C)Cc1ccccn1)C(C)C [A-77003]
pKi (Carbonic anhydrase 2): 6.85 | pEC50 [3]: 7.15 | solubility [4]: 256 µM (≈ 204 µg/mL) | pKi [5]: 9.82

CC(C)[C@H](N)C(=O)N[C@@H](Cc1ccccc1)C(O)[C@H](Cc1ccccc1)NC(=O)[C@@H](N)C(C)C
pIC50 [1]: 6.23

CC(C)[C@H](NC(=O)N(C)Cc1ccccn1)C(=O)N[C@@H](Cc1ccccc1)CC(O)[C@H](Cc1ccccc1)NC(=O)[C@@H](NC(=O)N(C)Cc1ccccn1)C(C)C (single isomer, unassigned)
pKi (Carbonic anhydrase 2): 7.77

CC(C)[C@H](NC(=O)OCc1ccccn1)C(=O)N[C@@H](Cc1ccccc1)[C@H](O)[C@@H](O)[C@H](Cc1ccccc1)NC(=O)[C@@H](NC(=O)OCc1ccccn1)C(C)C
pEC50 [3]: 6.92 | pKi [5]: 9.80

CC(=O)N[C@@H](Cc1ccccc1)C(O)[C@H](Cc1ccccc1)NC(C)=O
pIC50 [1]: < 5.00

CC(C)[C@H](NC(=O)OCc1ccccc1)C(=O)N[C@@H](Cc1ccccc1)C(O)C(O)[C@H](Cc1ccccc1)NC(=O)[C@@H](NC(=O)OCc1ccccc1)C(C)C (single isomer, unassigned; 13)
pIC50 [1]: 9.42

CC(C)[C@H](NC(=O)N(C)Cc1ccccn1)C(=O)N[C@@H](Cc1ccccc1)[C@H](O)[C@@H](O)[C@H](Cc1ccccc1)NC(=O)[C@@H](NC(=O)N(C)Cc1ccccn1)C(C)C [A-76928]
pEC50 [3]: 6.55 | solubility [4]: 292 µM (≈ 232 µg/mL) | pKi [5]: 8.78

CN(Cc1ccc(S(=O)(=O)N2CCOCC2)cc1)c1ccc2c3c(cccc13)C(N)=N2
pKi (Thymidylate synthase): 8.70

CC(=O)N[C@H](C(=O)N[C@H](C(=O)N[C@@H](Cc1ccccc1)C(O)[C@H](Cc1ccccc1)NC(=O)[C@@H](NC(=O)[C@@H](NC(C)=O)C(C)C)C(C)C)C(C)C)C(C)C
pIC50 [1]: 8.00

CC(C)[C@H](NC(=O)N(C)Cc1ccccn1)C(=O)N[C@@H](Cc1ccccc1)[C@@H](O)[C@H](O)[C@H](Cc1ccccc1)NC(=O)[C@@H](NC(=O)N(C)Cc1ccccn1)C(C)C
pEC50 [3]: 7.22 | solubility [4]: 4.7 µM (≈ 3.74 µg/mL) | pKi [5]: 9.74

CC(C)[C@H](NC(=O)OCc1ccccn1)C(=O)N[C@@H](Cc1ccccc1)[C@@H](O)[C@H](O)[C@H](Cc1ccccc1)NC(=O)[C@@H](NC(=O)OCc1ccccn1)C(C)C
pEC50 [3]: 7.30 | solubility [4]: 0.27 µM (≈ 0.208 µg/mL) | pKi [5]: 9.72

CN(Cc1ccc(S(=O)(=O)c2ccccc2)cc1)c1ccc2c3c(cccc13)C(N)=N2
Thymidine reversal [2]: 2.3

N[C@@H](Cc1ccccc1)C(O)[C@@H](N)Cc1ccccc1
pIC50 [1]: < 5.00

CC(C)[C@H](NC(=O)OCc1ccccc1)C(=O)N[C@@H](Cc1ccccc1)[C@H](O)[C@H](O)[C@H](Cc1ccccc1)NC(=O)[C@@H](NC(=O)OCc1ccccc1)C(C)C
pIC50 [1]: 9.66

CC(C)(C)OC(=O)N[C@@H](Cc1ccccc1)C(O)[C@H](Cc1ccccc1)NC(=O)OC(C)(C)C
pIC50 [1]: 5.52

From ChEMBL document CHEMBL1127692, “Application of the three-dimensional structures of protein target molecules in structure-based drug design” (J Med Chem, 1994)
